Experimental data as given in PubChem BioAssay (NCI).
Where “and” joins values, the source holds several entries; their conditions need not be identical. Equal values may be shown once.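 Tested at 5 concentrations; 48 h exposure; 96-well plates; endpoints linearly interpolated, else capped at highest concentration. Here, GI50 denotes the concentration required for 50% inhibition of growth. Definition used: TGI = concentration required for complete inhibition of growth.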

Tests used:
Test in all cases: NCI tumour cell line growth inhibition, 48 h
UO-31 renal = system: UO-31 renal
LOX IMVI melanoma = system: LOX IMVI melanoma
SF-295 CNS = system: SF-295 CNS
SF-268 CNS = system: SF-268 CNS
IGROV1 ovarian = system: IGROV1 ovarian
CAKI-1 renal = system: CAKI-1 renal
OVCAR-4 ovarian = system: OVCAR-4 ovarian
KM12 colon = system: KM12 colon
ACHN renal = system: ACHN renal
MDA-MB-435 = system: MDA-MB-435

| Compound | TGI (UO-31 renal) | TGI (LOX IMVI melanoma) | TGI (SF-295 CNS) | TGI (SF-268 CNS) | TGI (IGROV1 ovarian) | TGI (CAKI-1 renal) | TGI (OVCAR-4 ovarian) | TGI (KM12 colon) | TGI (ACHN renal) | GI50 (LOX IMVI melanoma) [µM] | GI50 (MDA-MB-435) [µM] | TGI (MDA-MB-435) | GI50 (UO-31 renal) | GI50 (SF-295 CNS) [µM] | GI50 (SF-268 CNS) [µM] | GI50 (IGROV1 ovarian) | GI50 (OVCAR-4 ovarian) [µM] | GI50 (KM12 colon) [µM] | GI50 (ACHN renal) [µM] | GI50 (CAKI-1 renal) |
| --- | --- | --- | --- | --- | --- | --- | --- | --- | --- | --- | --- | --- | --- | --- | --- | --- | --- | --- | --- | --- |
| CCOC(=N)CC(=O)NC(C)c1ccccc1 (stereo unspecified) | > 100 µM | > 100 µM | > 100 µM | > 100 µM | > 100 µM | > 100 µM | > 100 µM | > 100 µM | > 100 µM | – | – | – | – | – | – | – | – | – | – | – |
| C=C(C)[C@]12CC(C)C34OC(/C=C\C=C\CCCCCCCCC)(O[C@@H]1[C@@H]3[C@@H]1O[C@]1(CO)[C@@H](O)[C@]1(O)C(=O)C(C)=C[C@@H]41)O2 (stereo partly specified) | 24.8 µM | 3.88 µM | – | 28.5 µM | 30 µM | – | 22.6 µM | 21.7 µM | 22.8 µM | 1.48 | < 0.0001 | 21.5 µM | – | – | – | – | – | – | – | – |
| CCNC(=O)Oc1ccc(/C(=C(\C)c2ccc(Cl)cc2)c2ccc(OCCN3CCCCC3)cc2)cc1 | 5.45 µM | 3.94 µM | 4.36 µM | 20.9 µM | 15.8 µM | – | 12.9 µM | 15.4 µM | 16.7 µM | 1.93 | 3.39 | 14.1 µM | 2.05 µM | 1.95 | 6.04 | 4.13 µM | 2.99 | 3.81 | 4.78 | – |
| CCCCCCCCCCCCCCCC(=O)N[C@H]1CCc2cc(OC)c(OC)c(OC)c2-c2ccc(SC)c(=O)cc21 | 18.4 µM | 11.9 µM | 8.89 µM and 5.44 µM | 7.59 µM and 10.9 µM | 39 µM and 10.9 µM | 80 µM and 21.8 µM | 80 µM and > 100 µM | 8.4 µM and 3.73 µM | 22.4 µM and 19.7 µM | – | – | – | – | 1.12 | 1.63 | – | 8.65 | 0.845 | 3.88 | 6.7 µM |
| COC(=O)C1=C(O)C(C(=O)OC)[C@@]2(O)[C@@H](C(=O)OC)C(c3ccc(OC(=O)C(CC(C)C)NC(C)=O)cc3)C[C@@H]1[C@@H]2C(=O)OC (stereo partly specified) | > 100 µM | 45 µM | > 100 µM | > 100 µM | > 100 µM | > 100 µM | – | > 100 µM | > 100 µM | 20.6 | > 100 | > 100 µM | > 100 µM | 74.8 | 35.7 | > 100 µM | – | 28.2 | 41.9 | > 100 µM |
| O=c1c2cc(F)ccc2sc2c(NCCCN3CCCC3)nc3ccccc3c12 | 4.18 µM | 3.28 µM | 4.39 µM | – | 3.85 µM | 2.95 µM | 4.61 µM | – | 3.18 µM | 1.73 | 1.8 | 3.25 µM | 1.59 µM | 2.1 | – | 1.84 µM | 2.01 | – | 1.69 | 1.48 µM |
| CCOC(=O)NNC(=O)NC12CC3CC(CC(C3)C1)C2 | > 100 µM | > 100 µM | > 100 µM | > 100 µM | > 100 µM | > 100 µM | > 100 µM | > 100 µM | > 100 µM | – | – | – | – | – | – | – | – | – | – | – |
| Cn1cc(-c2nn3cc(-c4cccs4)nc3s2)c2cc(F)ccc21 | > 100 µM | – | 9.39 µM | > 100 µM | > 100 µM | 57.4 µM | > 100 µM | > 100 µM | 86.8 µM | – | 0.293 | 1.13 µM | 1.72 µM | 2.24 | 6.58 | 1.93 µM | 5.77 | 1.04 | 3.39 | 2.42 µM |
| CCCCCCCCC(=O)NCCCNCCCNC(=O)CCCCCCCC | 27.6 µM | 3.19 µM | 14.2 µM | 26 µM | 10.6 µM | 27.7 µM | 29.9 µM | 3.48 µM | 16.1 µM | – | – | – | – | – | – | – | – | – | – | – |
| CC[C@@]1(OC(=O)CN(C)C)C(=O)OCc2c1cc1n(c2=O)Cc2cc3ccccc3nc2-1 | 0.231 µM and 0.107 µM | 0.285 µM and 0.218 µM | 0.673 µM and 0.938 µM | – | 4.43 µM and > 23.3 µM | 2.4 µM and 0.806 µM | 5.61 µM and 0.733 µM | – | 0.273 µM | < 0.0161 | – | 1.54 µM | 0.0181 µM | < 0.0127 | 0.0464 | 0.217 µM | 0.205 | – | – | – |
| Cc1cc(N)c2ccccc2[n+]1CCCCCCCCCC[n+]1c(C)cc(N)c2ccccc21 | > 50 µM and 12.9 µM and 14 µM | 2.29 µM | 1.84 µM and 11.9 µM and 3.61 µM | 3.49 µM and 10.3 µM and 32.5 µM | – | > 50 µM and 27.7 µM and 18.6 µM | – | 0.65 µM and 1.49 µM | > 50 µM and 7.15 µM and 17.9 µM | – | 0.245 | 0.926 µM and 3.18 µM | 0.954 µM and 2.84 µM | 0.189 | – | 0.538 µM and 2.17 µM | – | 0.145 | – | 1.37 µM and 3.27 µM |
| CCCCCCN1C(=O)CN=C1Nc1ccc2cc3ccc(NC4=NCC(=O)N4CCCCCC)cc3nc2c1 | 2.54 µM | – | 3.82 µM | 5.72 µM | 4.28 µM | – | 4.01 µM | 4.1 µM | 3.42 µM | – | 1.79 | 3.77 µM | 1.24 µM | 1.82 | 2.02 | 1.85 µM | 1.66 | 1.47 | 1.76 | – |
